Test results reported in US10266526B2, “Substituted 1,2,3-triazoles as SMYD inhibitors for treating cancer” (EPIZYME, INC., priority 2014, dated 2019).

biological target: SMYD2 (Homo sapiens (Human), UniProt Q9NRG4); assay: SMYD2 biochemical assay (SMYD2 enzyme assay on peptide substrate, 3H-SAM Flashplate); settings: SMYD2 Biochem IC50, IC50 values are an average of n = 1 to n = 50
Sequence (Q9NRG4 whole entry): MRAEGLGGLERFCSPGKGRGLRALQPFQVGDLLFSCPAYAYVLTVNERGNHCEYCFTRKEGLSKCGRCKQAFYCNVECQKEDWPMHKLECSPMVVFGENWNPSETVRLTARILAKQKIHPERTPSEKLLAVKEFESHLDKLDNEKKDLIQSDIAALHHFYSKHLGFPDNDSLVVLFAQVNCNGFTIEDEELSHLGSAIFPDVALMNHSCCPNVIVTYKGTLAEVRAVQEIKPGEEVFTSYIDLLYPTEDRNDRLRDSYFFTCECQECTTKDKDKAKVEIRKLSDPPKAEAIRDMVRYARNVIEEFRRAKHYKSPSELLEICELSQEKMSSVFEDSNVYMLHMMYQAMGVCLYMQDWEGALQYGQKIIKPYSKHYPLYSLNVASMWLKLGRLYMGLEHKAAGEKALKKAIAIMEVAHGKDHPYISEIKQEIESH

Row | IC50 | SMILES
1 | 84.5 nM | C[C@@H](c1ccc(OCc2ccccc2)cc1)N1CC(NC(=O)c2cn(C3CC3)nn2)C1 (single isomer, unassigned) [compound 778]

same assay, conditions: read-out: SMYD2 Biochem IC50; IC50 values are an average of n = 1 to n = 50

Row | IC50 | SMILES
2 | 1680 nM | COc1cccc(OC)c1C(C)N1CC(NC(=O)c2cn(C3CC3)nn2)C1 (centres unmarked) [compound 768, 1-cyclopropyl-N-{1-[1-(2,6-dimethoxyphenyl)ethyl]azetidin-3-yl}-1H-1,2,3-triazole-4-carboxamide]
3 | 121 nM | COc1cccc(C(C)N2CC(NC(=O)c3cc(C4CC4)cnn3)C2)c1OC (centres unmarked) [compound 861, 5-cyclopropyl-N-{1-[1-(2,3-dimethoxyphenyl)ethyl]azetidin-3-yl}pyridazine-3-carboxamide]
4 | 7970 nM | COc1cccc2c1C(N1CC(NC(=O)c3cn(C4CC4)nn3)C1)CC2 (centres unmarked) [compound 762, 1-cyclopropyl-N-[1-(7-methoxy-2,3-dihydro-1H-inden-1-yl)azetidin-3-yl]-1H-1,2,3-triazole-4-carboxamide]
5 | 516 nM | C[C@@H](c1ccccc1)N1CC(NC(=O)c2cc(C3CC3)cnn2)C1 [compound 646, 5-cyclopropyl-N-{1-[(1S)-1-phenylethyl]azetidin-3-yl}pyridazine-3-carboxamide]
6 | 1380 nM | O=C(NC1CN(Cc2ccc(OCCO)cc2)C1)c1cn(C2CC2)nn1 [compound 827, 1-cyclopropyl-N-(1-{[4-(2-hydroxyethoxy)phenyl]methyl}azetidin-3-yl)-1H-1,2,3-triazole-4-carboxamide]
7 | 1200 nM | O=C(NC1CN(Cc2cnn(Cc3cscn3)c2)C1)c1cn(C2CC2)nn1 [compound 945, 1-cyclopropyl-N-(1-((1-(thiazol-4-ylmethyl)-1H-pyrazol-4-yl)methyl)azetidin-3-yl)-1H-1,2,3-triazole-4-carboxamide]
8 | 1100 nM | CC(O)COc1cccc(C(C)N2CC(NC(=O)c3cn(C4CC4)nn3)C2)c1Cl (centres unmarked) [compound 978, N-(1-(1-(2-chloro-3-(2-hydroxypropoxy)phenyl)ethyl)azetidin-3-yl)-1-cyclopropyl-1H-1,2,3-triazole-4-carboxamide]
9 | 334 nM | CC(c1ccc(NCc2ccccc2)cc1)N1CC(NC(=O)c2cn(C3CC3)nn2)C1 (centres unmarked) [compound 862, N-(1-{1-[4-(benzylamino)phenyl]ethyl}azetidin-3-yl)-1-cyclopropyl-1H-1,2,3-triazole-4-carboxamide]
10 | 11 nM | O=C(NC1CN(Cc2cnn(Cc3ccc(Cl)cc3)c2)C1)c1nc(C2CC2)c[nH]1 [compound 927, N-(1-((1-(4-chlorobenzyl)-1H-pyrazol-4-yl)methyl)azetidin-3-yl)-4-cyclopropyl-1H-imidazole-2-carboxamide]
11 | 882 nM | O=C(NC1CN(Cc2ccc(O)cc2)C1)c1cn(C2CC2)nn1 [compound 824, 1-cyclopropyl-N-{1-[(4-hydroxyphenyl)methyl]azetidin-3-yl}-1H-1,2,3-triazole-4-carboxamide]
12 | 7990 nM | COc1ccc(C(F)(F)F)cc1C(C)N1CC(NC(=O)c2cn(C3CC3)nn2)C1 (centres unmarked) [compound 690, 1-cyclopropyl-N-(1-{1-[2-methoxy-5-(trifluoromethyl)phenyl]ethyl}azetidin-3-yl)-1H-1,2,3-triazole-4-carboxamide]
13 | 120 nM | Cc1coc(Cn2cc(CN3CC(NC(=O)c4cn(C5CC5)nn4)C3)cn2)n1 [compound 937, 1-cyclopropyl-N-(1-((1-((4-methyloxazol-2-yl)methyl)-1H-pyrazol-4-yl)methyl)azetidin-3-yl)-1H-1,2,3-triazole-4-carboxamide]
14 | 72.1 nM | COc1cccc(C(C)N2CC(NC(=O)c3cc(C4CC4)cnn3)C2)c1Cl (centres unmarked) [compound 851, N-{1-[1-(2-chloro-3-methoxyphenyl)ethyl]azetidin-3-yl}-5-cyclopropylpyridazine-3-carboxamide]
15 | 4790 nM | CC(c1ccc(OCCCN(C)C)cc1)N1CC(NC(=O)c2cn(C3CC3)nn2)C1 (centres unmarked) [compound 858, 1-cyclopropyl-N-[1-(1-{4-[3-(dimethylamino)propoxy]phenyl}ethyl)azetidin-3-yl]-1H-1,2,3-triazole-4-carboxamide]
16 | 422 nM | CC(c1ccccc1OCc1ccccc1)N1CC(NC(=O)c2cn(C3CC3)nn2)C1 (centres unmarked) [compound 796, N-(1-{1-[2-(benzyloxy)phenyl]ethyl}azetidin-3-yl)-1-cyclopropyl-1H-1,2,3-triazole-4-carboxamide]
17 | 755 nM | CC(c1ccc(N2CCOCC2)cc1)N1CC(NC(=O)c2cn(C3CC3)nn2)C1 (centres unmarked) [compound 728, 1-cyclopropyl-N-(1-{1-[4-(morpholin-4-yl)phenyl]ethyl}azetidin-3-yl)-1H-1,2,3-triazole-4-carboxamide]
18 | 1430 nM | CC(C)C(c1ccccc1)N1CC(NC(=O)c2cn(C3CC3)nn2)C1 (centres unmarked) [compound 787, 1-cyclopropyl-N-[1-(2-methyl-1-phenylpropyl)azetidin-3-yl]-1H-1,2,3-triazole-4-carboxamide]
19 | 360 nM | O=C(NC1CN(Cc2cnn(CC3CCCCC3)c2)C1)c1cn(C2CC2)nn1 [compound 948, N-(1-((1-(cyclohexylmethyl)-1H-pyrazol-4-yl)methyl)azetidin-3-yl)-1-cyclopropyl-1H-1,2,3-triazole-4-carboxamide]
20 | 718 nM | CC(c1cccc(OCc2ccccc2)c1)N1CC(NC(=O)c2cn(C3CC3)nn2)C1 (centres unmarked) [compound 737, N-(1-{1-[3-(benzyloxy)phenyl]ethyl}azetidin-3-yl)-1-cyclopropyl-1H-1,2,3-triazole-4-carboxamide]
21 | 1600 nM | CC(c1ccc2nn(C)cc2c1)N1CC(NC(=O)c2cn(C3CC3)nn2)C1 (centres unmarked) [compound 935, 1-cyclopropyl-N-(1-(1-(2-methyl-2H-indazol-5-yl)ethyl)azetidin-3-yl)-1H-1,2,3-triazole-4-carboxamide]

The remaining lines, values behind:

Row | SMILES | IC50
22 | COc1ccc(Cl)c(C(C)N2CC(NC(=O)c3cn(C4CC4)nn3)C2)c1 (centres unmarked) [compound 938, N-(1-(1-(2-chloro-5-methoxyphenyl)ethyl)azetidin-3-yl)-1-cyclopropyl-1H-1,2,3-triazole-4-carboxamide] | 130 nM
23 | COc1cc(F)ccc1C(C)N1CC(NC(=O)c2cn(C3CC3)nn2)C1 (centres unmarked) [compound 689, 1-cyclopropyl-N-{1-[1-(4-fluoro-2-methoxyphenyl)ethyl]azetidin-3-yl}-1H-1,2,3-triazole-4-carboxamide] | 1890 nM
24 | CC(NC(=O)c1cc(C2CC2)cnn1)C1CCCCN1 (centres unmarked) [compound 1003, 5-cyclopropyl-N-(1-(piperidin-2-yl)ethyl)pyridazine-3-carboxamide] | 19000 nM
25 | O=C(NC1CN(C2(c3ccccc3)COC2)C1)c1cn(C2CC2)nn1 [compound 781, 1-cyclopropyl-N-[1-(3-phenyloxetan-3-yl)azetidin-3-yl]-1H-1,2,3-triazole-4-carboxamide] | > 50000 nM
26 | CC(c1ccc(OCc2ccccc2)c(Cl)c1)N1CC(NC(=O)c2cn(C3CC3)nn2)C1 (centres unmarked) [compound 868, N-(1-{1-[4-(benzyloxy)-3-chlorophenyl]ethyl}azetidin-3-yl)-1-cyclopropyl-1H-1,2,3-triazole-4-carboxamide] | 925 nM
27 | CC(c1ccccc1F)N1CC(NC(=O)c2cn(C3CC3)nn2)C1 (centres unmarked) [compound 678, 1-cyclopropyl-N-{1-[1-(2-fluorophenyl)ethyl]azetidin-3-yl}-1H-1,2,3-triazole-4-carboxamide] | 907 nM
28 | CC(c1n[nH]c2ccccc12)N1CC(NC(=O)c2cn(C3CC3)nn2)C1 (centres unmarked) [compound 761, 1-cyclopropyl-N-{1-[1-(1H-indazol-3-yl)ethyl]azetidin-3-yl}-1H-1,2,3-triazole-4-carboxamide] | 3210 nM
29 | CNCc1cccc(C(C)N2CC(NC(=O)c3cn(C4CC4)nn3)C2)c1OC (centres unmarked) [compound 835, 1-cyclopropyl-N-[1-(1-(2-methoxy-3-[(methylamino)methyl]phenyl}ethyl)azetidin-3-yl]-1H-1,2,3-triazole-4-carboxamide] | 780 nM
30 | CN1CCCC(NC(=O)c2cc(C3CC3)cnn2)C1 (centres unmarked) [compound 918, 5-cyclopropyl-N-(1-methylpiperidin-3-yl)pyridazine-3-carboxamide] | > 50000 nM
31 | O=C(NC1CN(CC2CCC2)C1)c1cn(C2CC2)nn1 [compound 669, N-[1-(cyclobutylmethyl)azetidin-3-yl]-1-cyclopropyl-1H-1,2,3-triazole-4-carboxamide] | 1620 nM
32 | CNCCN1CCC(CN2CC(NC(=O)c3cn(C4CC4)nn3)C2)C1=O (centres unmarked) [compound 756, 1-cyclopropyl-N-[1-({1-[2-(methylamino)ethyl]-2-oxopyrrolidin-3-yl}methyl)azetidin-3-yl]-1H-1,2,3-triazole-4-carboxamide] | 17000 nM
33 | O=C(NC1CN(Cc2cnn(Cc3ccc(Cl)cc3)c2)C1)c1cc(C2CC2)ccn1 [compound 930, N-(1-((1-(4-chlorobenzyl)-1H-pyrazol-4-yl)methyl)azetidin-3-yl)-4-cyclopropylpicolinamide] | 3.3 nM
34 | O=C(NC1CN(C(CO)c2ccc(F)cc2)C1)c1cn(C2CC2)nn1 (centres unmarked) [compound 813, 1-cyclopropyl-N-{1-[1-(4-fluorophenyl)-2-hydroxyethyl]azetidin-3-yl}-1H-1,2,3-triazole-4-carboxamide] | 15200 nM
35 | O=C(NC1CN(Cc2cnn(Cc3ccc(C(F)(F)F)cc3)c2)C1)c1cn(C2CC2)nn1 [compound 943, 1-cyclopropyl-N-(1-((1-(4-(trifluoromethyl)benzyl)-1H-pyrazol-4-yl)methyl)azetidin-3-yl)-1H-1,2,3-triazole-4-carboxamide] | 14 nM
36 | COCCN1CC(NC(=O)c2cn(C3CC3)nn2)C1 [compound 667, 1-cyclopropyl-N-[1-(2-methoxyethyl)azetidin-3-yl]-1H-1,2,3-triazole-4-carboxamide] | 2460 nM
37 | NCc1cccc(CN2CC(NC(=O)c3cn(C4CC4)nn3)C2)c1 [compound 754, N-(1-{[3-(aminomethyl)phenyl]methyl}azetidin-3-yl)-1-cyclopropyl-1H-1,2,3-triazole-4-carboxamide] | 7340 nM
38 | CC(c1ccc(F)cc1Cl)N1CC(NC(=O)c2cn(C3CC3)nn2)C1 (centres unmarked) [compound 710, N-{1-[1-(2-chloro-4-fluorophenyl)ethyl]azetidin-3-yl}-1-cyclopropyl-1H-1,2,3-triazole-4-carboxamide] | 341 nM
